Reference: the NIST ThermoML archive (doi:10.1021/je050460d)

Assay: xn = mol fraction of the nth substance listed
Details: 101 kPa, Liquid; for viscosity: Capillary tube (Ostwald / Ubbelohde) method; for mass density: Vibrating tube method

CCCCCCn1cc[n+](C)c1.[Cl-] [1-hexyl-3-methylimidazolium chloride] + O
Details | mass density, 298.15 K [kg/m3] | mass density, 313.15 K [kg/m3] | mass density, 328.15 K [kg/m3] | mass density, 343.15 K [kg/m3] | viscosity, 298.15 K [mPa·s] | viscosity, 313.15 K [mPa·s] | viscosity, 328.15 K [mPa·s] | viscosity, 343.15 K [mPa·s]
x2 = 0 | 1039.67 | 1031.13 | 1022.69 | 1014.34 | 18089 | 3429 | 942.1 | 339.5
x2 = 0.1274 | 1040.45 | 1031.89 | 1023.44 | 1015.06 | 7667 | 1746 | 516.4 | 207.4
x2 = 0.3173 | 1040.7 | 1032.22 | 1023.8 | 1015.5 | 1020 | 393.5 | 165.7 | 79.07
x2 = 0.3906 | 1040.95 | 1032.63 | 1024.3 | 1015.77 | 499.4 | 188.9 | 86.76 | 45.52
x2 = 0.5594 | 1041.4 | 1032.76 | 1024.14 | 1015.4 | 201.2 | 88.11 | 44.87 | 25.37
x2 = 0.7127 | 1038.77 | 1029.8 | 1020.75 | 1011.45 | 60.75 | 30.04 | 16.83 | 10.39
x2 = 0.783 | 1035.72 | 1026.67 | 1017.17 | 1007.71 | 33.79 | 17.49 | 10.17 | 6.542
x2 = 0.8935 | 1025.28 | 1016.2 | 1006.79 | 997 | 8.688 | 5.191 | 3.367 | 2.358
x2 = 0.9417 | 1018.17 | 1009.43 | 1000.13 | 990.26 | 3.505 | 2.323 | 1.649 | 1.224

CCCCn1cc[n+](C)c1.[Cl-] [1-butyl-3-methylimidazolium chloride] + O
Details | mass density, 298.15 K [kg/m3] | mass density, 313.15 K [kg/m3] | mass density, 328.15 K [kg/m3] | mass density, 343.15 K [kg/m3] | viscosity, 298.15 K [mPa·s] | viscosity, 313.15 K [mPa·s] | viscosity, 328.15 K [mPa·s] | viscosity, 343.15 K [mPa·s]
x2 = 0.5666 | 1081 | 1072 | 1063.4 | 1054.7 | 123.5 | 56.63 | 30.04 | 17.69
x2 = 0.607 | 1079.9 | 1070.8 | 1062 | 1053.1 | 72.16 | 35.36 | 19.75 | 12.2
x2 = 0.6933 | 1076.5 | 1067.2 | 1058.1 | 1048.8 | 35.66 | 18.94 | 11.32 | 7.386
x2 = 0.7698 | 1071.1 | 1061.5 | – | – | 18.08 | 10.11 | – | –
x2 = 0.7699 | – | – | 1052.1 | 1042.4 | – | – | 6.474 | 4.419
x2 = 0.8279 | 1063.8 | 1054.1 | 1044.5 | 1034.4 | 10.19 | 6.125 | 4.019 | 2.858
x2 = 0.8674 | 1057.1 | 1047.1 | 1037.3 | 1027.1 | 6.628 | 4.123 | 2.795 | 2.043
x2 = 0.9194 | 1042.3 | 1032.8 | 1023.3 | 1013.1 | 3.543 | 2.311 | 1.635 | 1.228
x2 = 0.9625 | 1022.3 | 1014 | 1006.1 | 996.7 | 1.886 | 1.297 | 0.955 | 0.741
x2 = 0.9885 | 1005.2 | 999.1 | 989.3 | 979.6 | 1.175 | 0.955 | 0.753 | 0.652

CCCCCCCC[n+]1ccn(C)c1.[Cl-] [1-methyl-3-octylimidazolium chloride] + O
Details | mass density, 298.15 K [kg/m3] | mass density, 313.15 K [kg/m3] | mass density, 328.15 K [kg/m3] | mass density, 343.15 K [kg/m3] | viscosity, 298.15 K [mPa·s] | viscosity, 313.15 K [mPa·s] | viscosity, 328.15 K [mPa·s] | viscosity, 343.15 K [mPa·s]
x2 = 0 | 1008.82 | 1000.2 | 991.67 | 983.24 | 20883 | 4066 | 1091 | 387.2
x2 = 0.1484 | 1009.61 | 1000.98 | 992.42 | 983.87 | 5570 | 1470 | 484.6 | 200.1
x2 = 0.203 | 1009.99 | 1001.35 | 992.77 | 984.21 | 3815 | 1097 | 393.5 | 165.4
x2 = 0.4076 | 1011.83 | 1003.2 | 994.4 | 985.6 | 1325 | 387.9 | 170.8 | 84.75
x2 = 0.5334 | 1012.7 | 1003.76 | 994.81 | 985.96 | 921.1 | 337.9 | 147.7 | 74.31
x2 = 0.6807 | 1012.37 | 1003.16 | 993.98 | 984.8 | 433 | 175.5 | 83.26 | 44.23
x2 = 0.8185 | 1009.16 | 1000.09 | 990.76 | 981.11 | 193.4 | 83.87 | 42.22 | 24.22
x2 = 0.8803 | 1006.63 | 997.6 | 988.16 | 978.39 | 80.77 | 38.02 | 20.45 | 12.17
x2 = 0.9307 | 1003.69 | 995.12 | 985.89 | 976.15 | 22.48 | 13.27 | 8.18 | 5.33
x2 = 0.9635 | 1001.1 | 993.58 | 985.06 | 975.71 | 5.71 | 4.25 | 3.3 | 2.65
